Patent publication US9682995B2, “Amino-substituted isothiazoles” (BAYER PHARMA AKTIENGESELLSCHAFT, priority 2013, dated 2017)
pIC50: −log10 of the molar value.

How the values were obtained:
[1] = biological target: human Bub1 (Homo sapiens (Human), UniProt O43683); experiment: Bub1 kinase assay (TR-FRET); assay type: biochemical; conditions: 10 μM ATP; read-out: Bub1 avg (IC50 [mol/l])
Procedure, shortened: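 His6-tagged human Bub1 catalytic domain (aa 704-1085, insect-cell expressed, ~200 ng/ml) preincubated with compound 15 min, then reacted 60 min at 22 °C with 10 μM ATP and 1 μM biotinylated peptide (final) in pH 7.5 Tris buffer. Phosphopeptide detected by TR-FRET 665/620 ratio, normalised to no-inhibitor and no-enzyme controls.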

[2] = test system: HeLa; experiment: Proliferation assay (crystal violet), HeLa; assay type: cell-based; conditions: Homo sapiens, 96 h, 4 days, read-out: Inhibition of proliferation IC50 HeLa
Procedure, shortened: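 Tumour cells seeded at 1000–5000 cells/well in medium with 10% FCS, dosed after 24 h at 0.001–10 μM (0.5% DMSO final) for 4 days. Cell number read by crystal-violet staining after glutaraldehyde fixation (A595), normalised to zero-point plate (0%) and untreated cells (100%); IC50 from 4-parameter fit.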

Chain of human Bub1 (O43683 704-1085): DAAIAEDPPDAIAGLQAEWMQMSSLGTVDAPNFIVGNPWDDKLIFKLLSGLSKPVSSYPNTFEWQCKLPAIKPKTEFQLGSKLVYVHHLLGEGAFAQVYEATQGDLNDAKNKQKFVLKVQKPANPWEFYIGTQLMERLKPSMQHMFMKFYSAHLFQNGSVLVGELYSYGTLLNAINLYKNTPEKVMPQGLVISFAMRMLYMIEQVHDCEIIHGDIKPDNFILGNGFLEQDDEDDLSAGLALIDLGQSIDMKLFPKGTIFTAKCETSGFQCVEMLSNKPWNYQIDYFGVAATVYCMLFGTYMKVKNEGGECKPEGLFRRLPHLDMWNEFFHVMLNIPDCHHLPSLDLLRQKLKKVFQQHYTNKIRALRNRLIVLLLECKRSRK

Row | SMILES | pIC50 [1] | pIC50 [2]
1 | Cc1nsc(Nc2ccn3nccc3n2)c1C(=O)Nc1ccc(F)c(F)c1 [Example 57, N-(3,4-Difluorophenyl)-3-methyl-5-(pyrazolo[1,5-a]pyrimidin-5-ylamino)-1,2-thiazole-4-carboxamide] | < 4.70 | 5.54
2 | COc1ccc(NC(=O)c2c(C)nsc2Nc2nc3c(C(F)(F)F)cccc3s2)cc1F [Example 47, N-(3-Fluoro-4-methoxyphenyl)-3-methyl-5-{[4-(trifluoromethyl)-1,3-benzothiazol-2-yl]amino}-1,2-thiazole-4-carboxamide] | < 4.70 | 6.43
3 | COc1ccc(NC(=O)c2c(C)nsc2Nc2nccnc2C#N)cn1 [Example 24, 5-[(3-Cyanopyrazin-2-yl)amino]-N-(6-methoxypyridin-3-yl)-3-methyl-1,2-thiazole-4-carboxamide] | 5.51 | < 5.00
4 | CCc1ccccc1NC(=O)c1c(C)nsc1Nc1nc2ccccc2o1 [Example 11, 5-(1,3-Benzoxazol-2-ylamino)-N-(2-ethylphenyl)-3-methyl-1,2-thiazole-4-carboxamide] | 5.42 | 5.43
5 | Cc1nsc(Nc2ccc(C#N)cn2)c1C(=O)Nc1ccc(OC(C)C)nc1 [Example 110, 5-[(5-Cyanopyridin-2-yl)amino]-N-(6-isopropoxyridin-3-yl)-3-methyl-1,2-thiazole-4-carboxamide] | < 4.70 | 5.82
6 | Cc1nsc(Nc2cncc(N(C)C)n2)c1C(=O)Nc1ccc(F)c(F)c1 [Example 105, N-(3,4-Difluorophenyl)-5-{[6-(dimethylamino)pyrazin-2-yl]amino}-3-methyl-1,2-thiazole-4-carboxamide] | < 4.70 | 5.00

The remaining lines, values ahead:

Row | pIC50 [1] | pIC50 [2] | SMILES
7 | < 4.70 | 5.62 | CCc1ccccc1NC(=O)c1c(C)nsc1Nc1cc(-n2ccnc2)ncn1 [Example 9, N-(2-Ethylphenyl)-5-{[6-(1H-imidazol-1-yl)pyrimidin-4-yl]amino}-3-methyl-1,2-thiazole-4-carboxamide]
8 | < 4.70 | 5.48 | CCOc1ccc(NC(=O)c2c(C)nsc2Nc2cnc3ccccc3n2)cn1 [Example 119, N-(6-Ethoxypyridin-3-yl)-3-methyl-5-(quinoxalin-2-ylamino)-1,2-thiazole-4-carboxamide]
9 | < 4.70 | 5.77 | Cc1nsc(Nc2cc(C#N)ccn2)c1C(=O)Nc1ccc(OC2CCCCC2)nc1 [Example 118, 5-[(4-Cyanopyridin-2-yl)amino]-N-[6-(cyclohexyloxy)pyridin-3-yl]-3-methyl-1,2-thiazole-4-carboxamide]
